Measured values taken from patent publication US9293713B2, “Arylamine compound” (RICOH COMPANY, LTD., priority 2012, dated 2016).

Tests used:
[1] = Preparation of ink (evaluation of solubility): degree of solubility from saturated solution; assay type: physicochemical; conditions: for degree of solubility, 1,2,3,4-Tetrahydronaphthalene: solvent 1,2,3,4-tetrahydronaphthalene (Tetralin); for degree of solubility, 2-Propanol: solvent 2-propanol; for degree of solubility, ethyl benzoate: solvent ethyl benzoate; for degree of solubility, Toluene: solvent toluene
Method: HTL17 was added to each of toluene, chloroform, 2-propanol, 1,2,3,4-tetrahydronaphthalene (Tetralin®), ethyl benzoate (100 mL respectively), until undissolved compound was observed. The mixture was stirred for 10 minute with refluxing the solvent. Then, mixture was cooled to ambient temperature, and stirred for 1 hour, followed by still standing for 16 hours. The supernatant was filtrated by PTFE filter having thickness of 0.2 μm to obtain saturated solution. The saturated solution was dried under reduced pressure to calculate degree of solubility for each solvent.
Evaluation criteria in Table 4 was described below.

[2] = Pyrolysis behavior observed by TG-DTA; assay type: physicochemical; conditions: for difference of mass reduced between theoretical value and actual measured value: heating
Method: HTL17 synthesized in Example 1 was heated at a range of 25° C. to 450° C. at a temperature increasing rate of 5° C./min and the pyrolysis behavior thereof was observed by TG-DTA [reference: Al2O3, under nitrogen flow (200 mL/min), EXSTAR6000 (product name), product of Seiko Instruments Inc.].
The results are shown in FIG. 2, where the horizontal axis indicates temperature [° C.], the left-hand vertical axis indicates change in mass [mg] and the right-hand vertical axis indicates DTA signal [μV].

[3] = saturated solution at ambient temperature

CCCCCC(=O)OC1CCC(OC(=O)CCCCC)c2cc(N(c3ccc(-c4ccc(N(c5ccc6c(c5)C(OC(=O)CCCCC)CCC6OC(=O)CCCCC)c5ccc6ccccc6c5)cc4)cc3)c3ccc4ccccc4c3)ccc21 (stereo not drawn) [HTL17]
degree of solubility, 1,2,3,4-Tetrahydronaphthalene [1, 3]: A (The degree of solubility is not less than 5% by mass)
degree of solubility, 2-Propanol [1, 3]: A (The degree of solubility is not less than 5% by mass)
degree of solubility, ethyl benzoate [1, 3]: A (The degree of solubility is not less than 5% by mass)
degree of solubility, Toluene [1, 3]: A (The degree of solubility is not less than 5% by mass)
mass reduction ([2]; from ambient temperature to 250° C., 5° C./min, nitrogen flow): 40.0%

CCCCCC(=O)OC1CCC(OC(=O)CCCCC)c2cc(N(c3ccc(-c4ccc(N(c5ccc6c(c5)C(OC(=O)CCCCC)CCC6OC(=O)CCCCC)c5cccc6ccccc56)cc4)cc3)c3cccc4ccccc34)ccc21 (stereo not drawn) [HTL18]
degree of solubility, 1,2,3,4-Tetrahydronaphthalene [1, 3]: A (The degree of solubility is not less than 5% by mass)
degree of solubility, 2-Propanol [1, 3]: A (The degree of solubility is not less than 5% by mass)
degree of solubility, ethyl benzoate [1, 3]: A (The degree of solubility is not less than 5% by mass)
degree of solubility, Toluene [1, 3]: A (The degree of solubility is not less than 5% by mass)
difference of mass reduced between theoretical value and actual measured value [2]: −0.12%

CCCCCC(=O)OC1CCC(OC(=O)CCCCC)c2cc(N(c3ccc(C4(c5ccc(N(c6ccc7c(c6)C(OC(=O)CCCCC)CCC7OC(=O)CCCCC)c6ccc7ccccc7c6)cc5)c5ccccc5-c5ccccc54)cc3)c3ccc4ccccc4c3)ccc21 (stereo not drawn) [HTL33]
degree of solubility, 1,2,3,4-Tetrahydronaphthalene [1, 3]: A (The degree of solubility is not less than 5% by mass)
degree of solubility, 2-Propanol [1, 3]: B (The degree of solubility is not less than 1% by mass but less than 5% by mass.)
degree of solubility, ethyl benzoate [1, 3]: A (The degree of solubility is not less than 5% by mass)
degree of solubility, Toluene [1, 3]: A (The degree of solubility is not less than 5% by mass)
difference of mass reduced between theoretical value and actual measured value [2]: −0.16%

CCCCCC(=O)OC1C=C(c2ccc(N(c3ccc(C4=CC(OC(=O)CCCCC)CCC4OC(=O)CCCCC)cc3)c3ccc(-c4ccc(N(c5ccc(C6=CC(OC(=O)CCCCC)CCC6OC(=O)CCCCC)cc5)c5ccc(C6=CC(OC(=O)CCCCC)CCC6OC(=O)CCCCC)cc5)cc4)cc3)cc2)C(OC(=O)CCCCC)CC1 (stereo not drawn) [HTL34]
degree of solubility, 1,2,3,4-Tetrahydronaphthalene ([1]; prophetic example): A (The degree of solubility is not less than 5% by mass)
degree of solubility, 2-Propanol ([1]; prophetic example): B (The degree of solubility is not less than 1% by mass but less than 5% by mass.)
degree of solubility, ethyl benzoate ([1]; prophetic example): A (The degree of solubility is not less than 5% by mass)
degree of solubility, Toluene ([1]; prophetic example): A (The degree of solubility is not less than 5% by mass)
difference of mass reduced between theoretical value and actual measured value ([2]; prophetic example): −0.18%

c1ccc2c(c1)-c1ccccc1C2(c1ccc(N(c2ccc3ccccc3c2)c2ccc3ccccc3c2)cc1)c1ccc(N(c2ccc3ccccc3c2)c2ccc3ccccc3c2)cc1 [NPAPF, 9,9-bis[4-(N,N-bis-naphthalene-2-yl-amino)phenyl]-9H-florene, reference compound]
degree of solubility, 1,2,3,4-Tetrahydronaphthalene [1, 3]: B (The degree of solubility is not less than 1% by mass but less than 5% by mass.)
degree of solubility, 2-Propanol [1, 3]: C (The degree of solubility is less than 1% by mass)
degree of solubility, ethyl benzoate [1, 3]: C (The degree of solubility is less than 1% by mass)
degree of solubility, Toluene [1, 3]: B (The degree of solubility is not less than 1% by mass but less than 5% by mass.)

c1ccc(-c2ccc(N(c3ccc(-c4ccccc4)cc3)c3ccc(-c4ccc(N(c5ccc(-c6ccccc6)cc5)c5ccc(-c6ccccc6)cc5)cc4)cc3)cc2)cc1 [TBPB, N,N,N′,N′-tetra-biphenyl-4-yl-benzidine, reference compound]
degree of solubility, 1,2,3,4-Tetrahydronaphthalene ([1]; prophetic example): B (The degree of solubility is not less than 1% by mass but less than 5% by mass.)
degree of solubility, 2-Propanol ([1]; prophetic example): C (The degree of solubility is less than 1% by mass)
degree of solubility, ethyl benzoate ([1]; prophetic example): B (The degree of solubility is not less than 1% by mass but less than 5% by mass.)
degree of solubility, Toluene ([1]; prophetic example): A (The degree of solubility is not less than 5% by mass)

c1ccc2cc(N(c3ccc(-c4ccc(N(c5ccc6ccccc6c5)c5cccc6ccccc56)cc4)cc3)c3cccc4ccccc34)ccc2c1 [α,β-TNB, 4,4′-bis[N-(1-naphthyl)-N-(2-naphthyl)amino]biphenyl, reference compound]
degree of solubility, 1,2,3,4-Tetrahydronaphthalene [1, 3]: A (The degree of solubility is not less than 5% by mass)
degree of solubility, 2-Propanol [1, 3]: C (The degree of solubility is less than 1% by mass)
degree of solubility, ethyl benzoate [1, 3]: B (The degree of solubility is not less than 1% by mass but less than 5% by mass.)
degree of solubility, Toluene [1, 3]: A (The degree of solubility is not less than 5% by mass)

c1ccc2cc(N(c3ccc(-c4ccc(N(c5ccc6ccccc6c5)c5cccc6ccccc56)cc4)cc3)c3cccc4ccccc34)ccc2c1 [α-TNB, 4,4′-tetrakis[N-(1-naphthyl)-N-(2-naphthyl)amino]biphenyl, reference compound]
degree of solubility, 1,2,3,4-Tetrahydronaphthalene ([1]; prophetic example): B (The degree of solubility is not less than 1% by mass but less than 5% by mass.)
degree of solubility, 2-Propanol ([1]; prophetic example): C (The degree of solubility is less than 1% by mass)
degree of solubility, ethyl benzoate ([1]; prophetic example): B (The degree of solubility is not less than 1% by mass but less than 5% by mass.)
degree of solubility, Toluene ([1]; prophetic example): A (The degree of solubility is not less than 5% by mass)
